Measurements from patent US20060276498A1 (Wyeth, priority 2005, published 2006).

target: T1, human Cot/Tpl2 kinase (Homo sapiens, UniProt P41279); assay: Tpl2/Cot kinase assay, GST-MEK1 phosphorylation detected by ELISA (DELFIA Eu); format: biochemical; details: Table 1; 0.4 nM Tpl2, 35 nM GST-MEK1, 50 uM ATP, 1 h at 30° C.
T1 construct: human Cot/Tpl2 kinase construct encoding residues 30-398; 6His (N); made in house; host or cells: Sf9 insect cells (baculovirus system, BD Biosciences)
Method: Sf9 cells expressing the kinase were lysed in 50 mM NaPhosphate pH=8; 300 mM NaCl; 5 mM imidazole; 0.1 mM EGTA; 25 mM beta-glycerophosphate; 1% TX-100, 1% glycerol; 6 mM beta-mercaptoethanol and protease inhibitors. The lysate was clarified by centrifugation and was loaded onto a Ni-Sepharose column. The column was washed with 50 mM NaPhosphate pH=8; 300 mM NaCl; 15 mM imidazole; 1% glycerol; and 6 mM beta-mercaptoethanol. His-Tpl2 was eluted with 50 mM NaPhosphate pH=8; 300 mM NaCl; 250 mM imidazole; 1% glycerol; and 6 mM beta-mercaptoethanol. The eluted protein was further purified by size exclusion chromatography. Fractions corresponding to monomeric Tpl2 were then used in the assay.
Tpl2/Cot activity was directly assayed using GST-MEK1 as a substrate. GST-MEK1 phosphorylation on serine residues 217 and 221 was detected by ELISA. 0.4 nM Tpl2 was incubated with 35 nM GST-MEK1 in a kinase reaction buffer containing 20 mM MOPS pH=7.2; 50 uM ATP; 20 mM MgCl2; 1 mM DTT; 25 mM β-glycerophosphate; 5 mM EGTA; and 1 mM sodium orthovanadate for 1 h at 30° C. The compounds of the inventions solubilized in 100% DMSO were pre-diluted in assay buffer so that the final concentration of DMSO in the reaction was 1%. The kinase reaction was carried out in 100 ul volume on 96 well plates. The kinase reaction was then stopped with the addition of 100 mM EDTA. […] After a 1 hour incubation at room temperature, the detection plate was washed 4 times with TBST (TBS+0.05% Tween 20) and then incubated for another hour at room temperature with anti phospho-MEK1 antibody (Cell Signaling) 1:1000 in 10 mM MOPS 7.5; 150 mM NaCl; 0.05% Tween 20; 0.1% Gelatin; 0.02% NaN3; and 1% BSA. The detection plate was washed again and incubated for 30 min with DELFIA Europium (Eu) labeled goat anti-rabbit IgG (Perkin-Elmer), 1:4000 in the same buffer used for the primary incubation. After a final wash, Eu detection solution was added to each well and the Eu signal was measured in a Wallac Victor^2 Multilabel Counter. IC50 calculations were preformed using the XLfit software package (IDBS, Guildford, UK).

T1 sequence (P41279 30-398): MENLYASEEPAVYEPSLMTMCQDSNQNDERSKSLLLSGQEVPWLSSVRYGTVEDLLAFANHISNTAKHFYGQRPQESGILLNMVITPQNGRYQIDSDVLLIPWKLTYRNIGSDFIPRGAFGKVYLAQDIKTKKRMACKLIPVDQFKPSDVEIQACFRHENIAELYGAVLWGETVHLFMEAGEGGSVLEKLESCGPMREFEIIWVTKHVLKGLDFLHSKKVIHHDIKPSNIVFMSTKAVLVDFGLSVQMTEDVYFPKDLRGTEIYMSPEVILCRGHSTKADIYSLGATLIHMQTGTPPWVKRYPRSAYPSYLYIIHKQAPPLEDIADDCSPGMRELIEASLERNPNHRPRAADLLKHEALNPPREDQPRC

**Q.** How did the IC50 turn out when `CC(C)c1cccc(Nc2c(C#N)cnc3cnc(OCCN4CCOCC4)cc23)c1` [Example 36, 4-[(3-isopropylphenyl)amino]-6-(2-morpholin-4-ylethoxy)-1,7-naphthyridine-3-carbonitrile] was run?
**A.** > 40 µM

**Q.** `CC(C)c1cccc(Nc2c(C#N)cnc3cnc(NCCN4CCOCC4)cc23)c1` [Example 37, 4-[(3-isopropylphenyl)amino]-6-[(2-morpholin-4-ylethyl)amino]-1,7-naphthyridine-3-carbonitrile] was tested. Which IC50 did it give?
**A.** > 40 µM

**Q.** How did the IC50 turn out when `COc1ccc(CNc2cc3c(Nc4cccc(C(C)C)c4)c(C#N)cnc3cn2)cc1` [Example 38, 4-[(3-isopropylphenyl)amino]-6-[(4-methoxybenzyl)amino]-1,7-naphthyridine-3-carbonitrile] was run?
**A.** > 40 µM

**Q.** For `N#Cc1cnc2cnc(OCCN3CCOCC3)cc2c1Nc1ccc(F)c(Cl)c1` [Example 39, 4-[(3-chloro-4-fluorophenyl)amino]-6-(2-morpholin-4-ylethoxy)-1,7-naphthyridine-3-carbonitrile], which IC50 is on record?
**A.** > 40 µM

**Q.** `N#Cc1cnc2cnc(NCCN3CCOCC3)cc2c1Nc1ccc(Oc2ccccc2)cc1` [Example 41, 6-[(2-morpholin-4-ylethyl)amino]-4-[(4-phenoxyphenyl)amino]-1,7-naphthyridine-3-carbonitrile] was tested. Which IC50 did it give?
**A.** 0.3 µM

**Q.** For `CC(C)c1ccc(Nc2c(C#N)cnc3cnc(NCCN4CCOCC4)cc23)cc1` [Example 43, 4-[(4-isopropylphenyl)amino]-6-[(2-morpholin-4-ylethyl)amino]-1,7-naphthyridine-3-carbonitrile], which IC50 is on record?
**A.** > 40 µM

**Q.** How did the IC50 turn out when `N#Cc1cnc2cnc(NCCN3CCOCC3)cc2c1Nc1ccc2[nH]ccc2c1` [Example 44, 4-(1H-indol-5-ylamino)-6-[(2-morpholin-4-ylethyl)amino]-1,7-naphthyridine-3-carbonitrile] was run?
**A.** > 40 µM

**Q.** Which IC50 does the source give for `CN1CCN(CCCNc2cc3c(Nc4ccc(F)c(Cl)c4)c(C#N)cnc3cn2)CC1` [Example 45, 4-[(3-chloro-4-fluorophenyl)amino]-6-{[3-(4-methylpiperazin-1-yl)propyl]amino}-1,7-naphthyridine-3-carbonitrile] here?
**A.** 20 µM

**Q.** For `N#Cc1cnc2cnc(NCc3ccccc3)cc2c1Nc1ccc(F)c(Cl)c1` [Example 47, 6-(benzylamino)-4-[(3-chloro-4-fluorophenyl)amino]-1,7-naphthyridine-3-carbonitrile], which IC50 is on record?
**A.** 0.1 µM

**Q.** With `CN(C)CCCNc1cc2c(Nc3ccc(F)c(Cl)c3)c(C#N)cnc2cn1` [Example 48, 4-[(3-chloro-4-fluorophenyl)amino]-6-{[3-(dimethylamino)propyl]amino}-1,7-naphthyridine-3-carbonitrile] as the molecule, how does the IC50 read?
**A.** 5 µM

**Q.** Which IC50 does the source give for `N#Cc1cnc2cnc(NCCCN3CCOCC3)cc2c1Nc1ccc(F)c(Cl)c1` [Example 49, 4-[(3-chloro-4-fluorophenyl)amino]-6-[(3-morpholin-4-ylpropyl)amino]-1,7-naphthyridine-3-carbonitrile] here?
**A.** 3 µM

**Q.** `CC[C@@H](Nc1cc2c(Nc3ccc(F)c(Cl)c3)c(C#N)cnc2cn1)c1ccccc1` [Example 51, 4-[(3-chloro-4-fluorophenyl)amino]-6-{[(1R)-1-phenylpropyl]amino}-1,7-naphthyridine-3-carbonitrile] was tested. Which IC50 did it give?
**A.** 0.41 µM

**Q.** `C[C@@H](Nc1cc2c(Nc3ccc(F)c(Cl)c3)c(C#N)cnc2cn1)[C@@H](O)c1ccccc1` [Example 53, 4-[(3-chloro-4-fluorophenyl)amino]-6-{[(1R, 2S)-2-hydroxy-1-methyl-2-phenylethyl]amino}-1,7-naphthyridine-3-carbonitrile] was tested. Which IC50 did it give?
**A.** 7 µM

**Q.** How did the IC50 turn out when `C[C@H](Nc1cc2c(Nc3ccc(F)c(Cl)c3)c(C#N)cnc2cn1)[C@H](O)c1ccccc1` [Example 54, 4-[(3-chloro-4-fluorophenyl)amino]-6-{[(1S, 2R)-2-hydroxy-1-methyl-2-phenylethyl]amino}-1,7-naphthyridine-3-carbonitrile] was run?
**A.** 1.3 µM

**Q.** Which IC50 does the source give for `C[C@@H](O)CNc1cc2c(Nc3ccc(F)c(Cl)c3)c(C#N)cnc2cn1` [Example 55, 4-[(3-chloro-4-fluorophenyl)amino]-6-{[(2R)-2-hydroxypropyl]amino}-1,7-naphthyridine-3-carbonitrile] here?
**A.** 1.5 µM
